Laboratory results reported in US11339171B2, “MDM2 inhibitors” (Gan & Lee Pharmaceuticals, priority 2017, dated 2022).

Columns and labels:
[1] = test system: human osteosarcoma cell line SJSA-1; test: Inhibition of proliferation of human osteosarcoma cell line SJSA-1 (DAPI staining, In Cell Analyzer); conditions: for IC50: Homo sapiens, SJSA-1, 72 h, read-out: IC50 (nM), inhibitory activity on proliferation of human osteosarcoma cell line SJSA-1, SJSA-1, incubated 72 h; for inhibitory effect on human osteosarcoma cell line SJSA-1 compared with positive control compound HDM201: labels are Example numbers, the compounds with S-configuration are meant
MDM2 = target: T1, MDM2 (Homo sapiens, UniProt Q00987); test: Inhibition test of MDM2-P53 (GST-MDM2, Biotin-P53, Anti-GST-Tb, SA-XL665); type: binding; conditions: for inhibitory effect on MDM2 compared with positive control compound HDM201: labels are Example numbers, the compounds with S-configuration are meant
T1 construct: made in house
T1 sequence (Q00987 whole entry): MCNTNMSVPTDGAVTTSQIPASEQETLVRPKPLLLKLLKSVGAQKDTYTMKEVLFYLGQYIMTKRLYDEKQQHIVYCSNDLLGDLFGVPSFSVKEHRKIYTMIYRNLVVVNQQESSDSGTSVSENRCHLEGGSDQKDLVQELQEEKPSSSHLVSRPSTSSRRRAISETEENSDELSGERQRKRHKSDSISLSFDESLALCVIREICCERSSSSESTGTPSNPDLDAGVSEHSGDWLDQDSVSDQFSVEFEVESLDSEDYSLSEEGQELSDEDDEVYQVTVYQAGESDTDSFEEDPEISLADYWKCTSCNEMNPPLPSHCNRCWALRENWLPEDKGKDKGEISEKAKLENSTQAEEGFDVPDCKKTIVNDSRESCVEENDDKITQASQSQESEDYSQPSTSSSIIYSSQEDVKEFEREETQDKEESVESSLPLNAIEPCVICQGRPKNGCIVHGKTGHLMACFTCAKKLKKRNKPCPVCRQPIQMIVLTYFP
Summary of the method: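 HTRF-type assay using 4 nM GST-MDM2 (final), Biotin-P53, SA-XL665 and anti-GST-Tb in PBS with 0.1% BSA, 5 mM DTT and 1 mM AEBSF. Compounds in 5-fold serial dilutions over twelve points; incubation 90 min at 25° C with shaking before plate-reader read-out.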

Structure (SMILES)	IC50 [1] [nM]	IC50 (MDM2) [nM]	inhibitory effect on human osteosarcoma cell line SJSA-1 compared with positive control compound HDM201 [1]	inhibitory effect on MDM2 compared with positive control compound HDM201 (MDM2)
COc1nc(N(C)C)ncc1-c1nc2c(n1C(C)C)[C@@]1(C(=O)Nc3cc(Cl)ccc31)N(c1cccc(Cl)c1)C2=O [Example S-112, (S)-6-chloro-5′-(3-chlorophenyl)-2′-(2-(dimethylamino)-4-methoxypyrimidin-5-yl)-3′-isopropyl-3′H-spiro[dihydroindole-3,4′-pyrrolo[3,4-d]imidazole]-2,6′(5′H)-dione]	90.6	1.15		
CCn1c(-c2cnc(OC)nc2OC)nc2c1[C@@]1(C(=O)Nc3cc(Cl)ccc31)N(c1cc(Cl)ccc1C)C2=O [Example S-26, (S)-6-chloro-5′-(5-chloro-2-methylphenyl)-2′-(2,4-dimethoxypyrimidin-5-yl)-3′-ethyl-3′H-spiro[dihydroindole-3,4′-pyrrolo[3,4-d]imidazole]-2,6′(5′H)-dione]	22.2	2.37		
CCn1c(-c2cnc(OC)nc2OC)nc2c1[C@]1(C(=O)Nc3cc(Cl)ccc31)N(c1cc(Cl)ccc1C)C2=O [Example R-26, (R)-6-chloro-5′-(5-chloro-2-methylphenyl)-2′-(2,4-dimethoxypyrimidin-5-yl)-3′-ethyl-3′H-spiro[dihydroindole-3,4′-pyrrolo[3,4-d]imidazole]-2,6′(5′H)-dione]	3650	236		
COc1nc(N(C)C)ccc1-c1nc2c(n1C(C)C)[C@@]1(C(=O)Nc3cc(Cl)ccc31)N(c1cc(Cl)ccc1C)C2=O [Example S-157, (S)-6-chloro-5′-(5-chloro-2-methylphenyl)-2′-(6-(dimethylamino)-2-methoxypyridin-3-yl)-3′-isopropyl-3′H-spiro[dihydroindole-3,4′-pyrrolo[3,4-d]imidazole]-2,6′(5′H)-dione]	16.7	3.81		
COc1cc(N)ccc1-c1nc2c(n1C(C)C)[C@]1(C(=O)Nc3cc(Cl)ccc31)N(c1cc(F)cc(Cl)c1)C2=O [Example R-67, (R)-2′-(4-amino-2-methoxyphenyl)-6-chloro-5′-(3-chloro-5-fluorophenyl)-3′-isopropyl-3′H-spiro[dihydroindole-3,4′-pyrrolo[3,4-d]imidazole]-2,6′(5′H)-dione]	8490	355		
COc1cc(C2CC2)ncc1-c1nc2c(n1C(C)C)[C@]1(C(=O)Nc3cc(Cl)ccc31)N(c1cc(Cl)cnc1C)C2=O [Example R-143, (R)-6-chloro-5′-(5-chloro-2-methylpyridin-3-yl)-2′-(6-cyclopropyl-4-methoxypyridin-3-yl)-3′-isopropyl-3′H-spiro[dihydroindole-3,4′-pyrrolo[3,4-d]imidazole]-2,6′(5′H)-dione]	6220	214		
CNc1ccc(-c2nc3c(n2C(C)C)[C@@]2(C(=O)Nc4cc(Cl)ccc42)N(c2cc(Cl)ccc2C)C3=O)c(OC)c1 [Example S-25, (S)-6-chloro-5′-(5-chloro-2-methylphenyl)-3′-isopropyl-2′-(2-methoxy-4-(methylamine)phenyl)-3′H-spiro[dihydroindole-3,4′-pyrrolo[3,4-d]imidazole]-2,6′(5′H)-dione]	8.83	2.52		
COc1cc(N(C)C)ccc1-c1nc2c(n1C(C)C)[C@]1(C(=O)Nc3cc(Cl)ccc31)N(c1cc(Cl)ccc1F)C2=O [Example R-81, (R)-6-chloro-5′-(5-chloro-2-fluorophenyl)-2′-(4-(dimethylamino)-2-methoxyphenyl)-3′-isopropyl-3′H-spiro[dihydroindole-3,4′-pyrrolo[3,4-d]imidazole]-2,6′(5′H)-dione]	1600	53.3		
COc1ncc(-c2nc3c(n2C2CCC2)[C@@]2(C(=O)Nc4cc(Cl)ccc42)N(c2cc(Cl)ccc2C)C3=O)c(OC)n1 [Example S-41, (S)-6-chloro-5′-(5-chloro-2-methylphenyl)-3′-cyclobutyl-2′-(2,4-dimethoxypyrimidin-5-yl)-3′H-spiro[dihydroindole-3,4′-pyrrolo[3,4-d]imidazole]-2,6′(5′H)-dione]	1210	149		
COc1cc(OC)c(-c2nc3c(n2C(C)C)C2(C(=O)Nc4cc(Cl)ccc42)N(c2cc(Cl)ccc2C)C3=O)cn1 (centres unmarked) [Example 11, 6-chloro-5′-(5-chloro-2-methylphenyl)-2′-(4,6-dimethoxypyridin-3-yl)-3′-isopropyl-3′H-spiro[dihydroindole-3,4′-pyrrolo[3,4-d]imidazole]-2,6′(5′H)-dione]			better	better
COc1cc(C(C)C)ncc1-c1nc2c(n1C(C)C)[C@@]1(C(=O)Nc3cc(Cl)ccc31)N(c1cc(Cl)cnc1C)C2=O [Example S-166, (S)-6-chloro-5′-(5-chloro-2-methylpyridin-3-yl)-3′-isopropyl-2′-(6-isopropyl-4-methoxypyridin-3-yl)-3′H-spiro[dihydroindole-3,4′-pyrrolo[3,4-d]imidazole]-2,6′(5′H)-dione]	38.1	1.88		
COc1nc(OCC(F)(F)F)ncc1-c1nc2c(n1C(C)C)[C@@]1(C(=O)Nc3cc(Cl)ccc31)N(c1cc(Cl)ccc1C)C2=O [Example S-141, (S)-6-chloro-5′-(5-chloro-2-methylphenyl)-3′-isopropyl-2′-(4-methoxy-2-(2,2,2-trifluoroethoxy)pyrimidin-5-yl)-3′H-spiro[dihydroindole-3,4′-pyrrolo[3,4-d]imidazole]-2,6′(5′H)-dione]	73.6	3.42		
COc1nc(OC(C)C)ncc1-c1nc2c(n1C(C)C)[C@@]1(C(=O)Nc3cc(Cl)ccc31)N(c1cc(Cl)cnc1C)C2=O [Example S-136, (S)-6-chloro-5′-(5-chloro-2-methylpyridin-3-yl)-2′-(2-isopropoxy-4-methoxypyrimidin-5-yl)-3′-isopropyl-3′H-spiro[dihydroindole-3,4′-pyrrolo[3,4-d]imidazole]-2,6′(5′H)-dione]	108	2.35		
COc1ncc(-c2nc3c(n2C(C)C)[C@]2(C(=O)Nc4cc(Cl)ccc42)N(c2cccc(Cl)c2)C3=O)c(OC)n1 [Example R-1, (R)-6-chloro-5′-(3-chlorophenyl)-2′-(2,4-dimethoxypyrimidin-5-yl)-3′-isopropyl-3′H-spiro[dihydroindole-3,4′-pyrrolo[3,4-d]imidazole]-2,6′(5′H)-dione]	16700	618		
COc1ccncc1-c1nc2c(n1C(C)C)[C@@]1(C(=O)Nc3cc(Cl)ccc31)N(c1cc(Cl)ccc1C)C2=O [Example S-18, (S)-6-chloro-5′-(5-chloro-2-methylphenyl)-3′-isopropyl-2′-(4-methoxypyridin-3-yl)-3′H-spiro[dihydroindole-3,4′-pyrrolo[3,4-d]imidazole]-2,6′(5′H)-dione]	13.9	1.43		
COc1cc(N(C)C)ncc1-c1nc2c(n1C(C)C)C1(C(=O)Nc3cc(Cl)ccc31)N(c1cccc(Cl)c1)C2=O (centres unmarked) [Example 113, 6-chloro-5′-(3-chlorophenyl)-2′-(6-(dimethylamino)-4-methoxypyridin-3-yl)-3′-isopropyl-3′H-spiro[dihydroindole-3,4′-pyrrolo[3,4-d]imidazole]-2,6′(5′H)-dione]			better	better
CCc1ccc(Cl)cc1N1C(=O)c2nc(-c3cnc(OC)nc3OC)n(C(C)C)c2C12C(=O)Nc1cc(Cl)ccc12 (centres unmarked) [Example 15, 6-chloro-5′-(5-chloro-2-ethylphenyl)-2′-(2,4-dimethoxypyrimidin-5-yl)-3′-isopropyl-3′H-spiro[dihydroindole-3,4′-pyrrolo[3,4-d]imidazole]-2,6′(5′H)-dione]			better	better
COc1cc(C(F)(F)F)ccc1-c1nc2c(n1C(C)C)[C@@]1(C(=O)Nc3cc(Cl)ccc31)N(c1cc(Cl)cnc1C)C2=O [Example S-144, (S)-6-chloro-5′-(5-chloro-2-methylpyridin-3-yl)-3′-isopropyl-2′-(2-methoxy-4-(trifluoromethyl)phenyl)-3′H-spiro[dihydroindole-3,4′-pyrrolo[3,4-d]imidazole]-2,6′(5′H)-dione]	101	3.84		
COc1nc(C#N)ncc1-c1nc2c(n1C(C)C)C1(C(=O)Nc3cc(Cl)ccc31)N(c1cc(Cl)ccc1C)C2=O (centres unmarked) [Example 179]	52.7	4.27		
COc1cccc(F)c1-c1nc2c(n1C(C)C)[C@]1(C(=O)Nc3cc(Cl)ccc31)N(c1cc(Cl)ccc1C)C2=O [Example R-57, (R)-6-chloro-5′-(5-chloro-2-methylphenyl)-2′-(2-fluoro-6-methoxyphenyl)-3′-isopropyl-3′H-spiro[dihydroindole-3,4′-pyrrolo[3,4-d]imidazole]-2,6′(5′H)-dione]	3960	427		
COc1cc(N(C)CCO)ccc1-c1nc2c(n1C(C)C)[C@]1(C(=O)Nc3cc(Cl)ccc31)N(c1cc(Cl)ccc1C)C2=O [Example R-162, (R)-6-chloro-5′-(5-chloro-2-methylphenyl)-2′-(4-((2-hydroxyethyl)(methyl)amino)-2-methoxyphenyl)-3′-isopropyl-3′H-spiro[dihydroindole-3,4′-pyrrolo[3,4-d]imidazole]-2,6′(5′H)-dione]	782	120		
COc1ncc(-c2nc3c(n2C(C)C)[C@]2(C(=O)Nc4cc(Cl)ccc42)N(c2cc(C)cc(Cl)c2)C3=O)c(OC)n1 [Example R-51, (R)-6-chloro-5′-(3-chloro-5-methylphenyl)-2′-(2,4-dimethoxypyrimidin-5-yl)-3′-isopropyl-3′H-spiro[dihydroindole-3,4′-pyrrolo[3,4-d]imidazole]-2,6′(5′H)-dione]	9520	547		
